The text below walks through data of paper PMC5780498, “Discovery of novel bacterial topoisomerase I inhibitors by use of in silico docking and in vitro assays” (Scientific Reports, 2018).

The structures appear in SMILES notation. Values after ≈ are worked out from the molar mass of the structure shown. Where two headings read alike, the source gives them in different places.

This assay deals with M. smegmatis clone overexpressing recombinant MtbTopI (M+ strain). As to the kind of experiment: microbe, parasite or virus in culture. The assay is classed as cell-based, Mycobacterium smegmatis. The following applies: Mycolicibacterium smegmatis.
[1] abbreviates: 48 h, read-out: M+ Growth Inhibition (MIC).
The mark [2] stands for this setting: read-out: M+ Growth Inhibition with TZ (MIC).

`Cc1c(C(=O)N2CCC(c3nnc(-c4nccc5ccccc45)o3)CC2)oc2ccccc12` [Compound 2]: the MIC is greater than 250 µM under setting [1] and 62.5 µM (≈ 27.4 µg/mL) under setting [2].
For `Cc1ccc2oc(C(=O)N3CCC(O)(c4cccc(C(F)(F)F)c4)CC3)c(C)c2c1` [Compound 10], the MIC is greater than 500 µM under setting [1] and 46.9 µM (≈ 19.6 µg/mL) under setting [2].
`Cc1ccc(CN2C[C@]34C=C[C@H](O3)C(C(=O)N3CCn5cccc5C3)C4C2=O)cc1C` (stereo partly shown) [Compound 7]: the MIC was greater than 500 µM under setting [1] and greater than 500 µM under setting [2].
For `Cc1ccc2[nH]c(C3CCN(C(=O)c4oc5ccc(C)cc5c4C)CC3)nc2c1` [Compound 9], the MIC was greater than 500 µM under setting [1] and 31.3 µM (≈ 12.1 µg/mL) under setting [2].
For `COc1ccc2c(c1)NC1(CCN(C(=O)Cc3c[nH]c4ccccc34)CC1)NS2(=O)=O` [Compound 3], the MIC reads like this: under setting [1], greater than 250 µM; under setting [2], 62.5 µM (≈ 27.5 µg/mL).
For the compound `Cc1ccc2c(C)c(C(=O)N3CCC4(CC(=O)c5ccccc5O4)C3)oc2c1` (stereo not shown) [Compound 12], the MIC reads like this: under setting [1], greater than 500 µM; under setting [2], greater than 500 µM.
Regarding `Cc1cc2oc(C(=O)N3CCC(c4nc5ccccc5[nH]4)CC3)c(C)c2cc1C` [Compound 8], the MIC was greater than 500 µM under setting [1] and 31.3 µM (≈ 12.1 µg/mL) under setting [2].
For `Cc1c(C(=O)N2CCCCC2CCc2ccc(O)cc2)oc2c(F)cccc12` (stereo not shown) [Compound 11], in that order: greater than 500 µM and 125 µM (≈ 47.7 µg/mL).
